Measured values published in the supplement of paper PMC11061612.

How the values were obtained:
Test in all cases: Bliss excess, mean over the matrix (fraction); higher = more synergy
[1] = tested on: DND-41 (T-Lymphoblastic Leukemia)
Summary of the method: (§1)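 Cell lines grown in DMEM/F12 or RPMI with 10% FBS were plated in 1536-well plates and held 24 hours at 37°C, 5% CO2 before 72 hours of exposure to two-drug dose matrices, with DMSO typically at 0.2%. CellTiter-Glo 2.0 luminescence gave viability, which was converted to inhibition. Vehicle wells were set to 0 and blank wells to 1. Combination Emax is the second-highest inhibition in the matrix, and Bliss excess is the observed combination effect minus the expected EA + EB − EA·EB, where EA and EB are the single-agent effects.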

[2] = tested on: NCI-H847 (Small Cell Lung Carcinoma)
Summary of the method: as §1

[3] = tested on: KM12 (Colorectal Carcinoma)
Summary of the method: as §1

[4] = tested on: MEL-JUSO (Melanoma)
Summary of the method: as §1

[5] = tested on: MKN28 (Gastric Carcinoma)
Summary of the method: as §1

[6] = tested on: GR-ST (B-Lymphoblastic Leukemia)
Summary of the method: as §1

[7] = tested on: NCI-H1792 (Lung Adenocarcinoma)
Summary of the method: as §1

[8] = tested on: L-540 (Hodgkin's Lymphoma)
Summary of the method: as §1

[9] = tested on: WIL2-NS (Non-Cancerous)
Summary of the method: as §1

[10] = tested on: SW1417 (Colorectal Carcinoma)
Summary of the method: as §1

[11] = tested on: HDQ-P1 (Breast Carcinoma)
Summary of the method: as §1

[12] = tested on: EVSA-T (Breast Carcinoma)
Summary of the method: as §1

[13] = tested on: SW837 (Colorectal Carcinoma)
Summary of the method: as §1

[14] = tested on: TC-71 (Ewing's Sarcoma)
Summary of the method: as §1

[15] = tested on: TE-6 (Esophageal Squamous Cell Carcinoma)
Summary of the method: as §1

[16] = tested on: TOV-112D (Ovarian Carcinoma)
Summary of the method: as §1

[17] = tested on: CAMA-1 (Breast Carcinoma)
Summary of the method: as §1

[18] = tested on: BFTC-905 (Bladder Carcinoma)
Summary of the method: as §1

[19] = tested on: K-562 (Chronic Myelogenous Leukemia)
Summary of the method: as §1

[20] = tested on: KARPAS-45 (T-Lymphoblastic Leukemia)
Summary of the method: as §1

Compound: C=CCn1c(=O)c2cnc(Nc3ccc(N4CCN(C)CC4)cc3)nc2n1-c1cccc(C(C)(C)O)n1 [AZD1775] + C1CN(CCC1(C(=O)N[C@@H](CCO)C2=CC=C(C=C2)Cl)N)C3=NC=NC4=C3C=CN4 [Capivasertib] (first compound max 3 µM, partner max 3 µM)
- Bliss excess [1]: -0.0428
- Bliss excess [2]: -0.0643
- Bliss excess [3]: -0.0162
- Bliss excess [4]: -0.0352
- Bliss excess [5]: -0.0219
- Bliss excess [6]: -0.0771
- Bliss excess [7]: 0.0053
- Bliss excess [8]: -0.0019
- Bliss excess [9]: -0.0675
- Bliss excess [10]: -0.0368
- Bliss excess [11]: -0.0679
- Bliss excess [12]: 0.129
- Bliss excess [13]: -0.0504
- Bliss excess [14]: 0.0131
- Bliss excess [15]: 0.0422
- Bliss excess [16]: 0.028
- Bliss excess [17]: -0.0244
- Bliss excess [18]: -0.0499
- Bliss excess [19]: -0.0516
- Bliss excess [20]: -0.0046

Compound: Cc1cc2ncnn2cc1Nc1ncc2c(n1)n(C1CCOCC1)c(=O)n2C [AZD7648] + CN(C)CCCOc1ccc(-c2ccc3ncc4c(c3c2)n(C2CCOCC2)c(=O)n4C)cn1 [AZD0156] (first compound max 10 µM, 7x7, partner max 1 µM)
- Bliss excess [1]: 0.0251
- Bliss excess [2]: -0.0113
- Bliss excess [3]: 0.0312
- Bliss excess [4]: -0.0029
- Bliss excess [5]: -0.0127
- Bliss excess [6]: -0.0687
- Bliss excess [7]: 0.0149
- Bliss excess [8]: -0.0074
- Bliss excess [9]: -0.0264
- Bliss excess [10]: -0.0262
- Bliss excess [11]: 0.0157
- Bliss excess [12]: -0.0126
- Bliss excess [13]: 0.0255
- Bliss excess [14]: 0.0438
- Bliss excess [15]: -0.0515
- Bliss excess [16]: 0.0307
- Bliss excess [17]: -0.0238
- Bliss excess [18]: 0.0314
- Bliss excess [19]: -0.0026
- Bliss excess [20]: -0.0274

Compound: COc1cccc(OCCCN)c1-c1cc(Nc2cnc(C#N)cn2)n[nH]1 [Prexasertib] + O=C(c1cc(Cc2n[nH]c(=O)c3ccccc23)ccc1F)N1CCN(C(=O)C2CC2)CC1 [Olaparib] (first compound max 1 µM, 7x7, partner max 10 µM)
- Bliss excess [1]: -0.101
- Bliss excess [2]: -0.0027
- Bliss excess [3]: -0.0192
- Bliss excess [4]: -0.0741
- Bliss excess [5]: -0.133
- Bliss excess [6]: -0.111
- Bliss excess [7]: -0.0161
- Bliss excess [8]: -0.0351
- Bliss excess [9]: -0.0174
- Bliss excess [10]: -0.0459
- Bliss excess [11]: 0.0002
- Bliss excess [12]: -0.0312
- Bliss excess [13]: -0.0854
- Bliss excess [14]: -0.017
- Bliss excess [15]: -0.0452
- Bliss excess [16]: 0.0277
- Bliss excess [17]: -0.188
- Bliss excess [18]: -0.0751
- Bliss excess [19]: -0.105
- Bliss excess [20]: -0.0081

Compound: COc1cccc(OCCCN)c1-c1cc(Nc2cnc(C#N)cn2)n[nH]1 [Prexasertib] + CN(C)CCCOc1ccc(-c2ccc3ncc4c(c3c2)n(C2CCOCC2)c(=O)n4C)cn1 [AZD0156] (first compound max 1 µM, 7x7, partner max 1 µM)
- Bliss excess [1]: -0.101
- Bliss excess [2]: -0.0124
- Bliss excess [3]: -0.0095
- Bliss excess [4]: 0.0301
- Bliss excess [5]: -0.0286
- Bliss excess [6]: -0.0287
- Bliss excess [7]: -0.0104
- Bliss excess [8]: 0.0019
- Bliss excess [9]: -0.0281
- Bliss excess [10]: -0.0473
- Bliss excess [11]: 0.023
- Bliss excess [12]: -0.0133
- Bliss excess [13]: -0.0022
- Bliss excess [14]: 0.026
- Bliss excess [15]: -0.0081
- Bliss excess [16]: 0.0332
- Bliss excess [17]: 0.0046
- Bliss excess [18]: 0.0125
- Bliss excess [19]: -0.0217
- Bliss excess [20]: -0.0485

Compound: COc1cccc(OCCCN)c1-c1cc(Nc2cnc(C#N)cn2)n[nH]1 [Prexasertib] + C[C@@H]1COCCN1C2=NC(=NC(=C2)C3(CC3)[S@](=N)(=O)C)C4=C5C=CNC5=NC=C4 [AZD6738] (first compound max 1 µM, 7x7, partner max 10 µM)
- Bliss excess [1]: -0.0651
- Bliss excess [2]: -0.035
- Bliss excess [3]: -0.0494
- Bliss excess [4]: -0.0307
- Bliss excess [5]: 0.0579
- Bliss excess [6]: -0.0845
- Bliss excess [7]: -0.0129
- Bliss excess [8]: -0.0341
- Bliss excess [9]: -0.0021
- Bliss excess [10]: 0.0572
- Bliss excess [11]: 0.11
- Bliss excess [12]: 0.0094
- Bliss excess [13]: 0.0106
- Bliss excess [14]: -0.0164
- Bliss excess [15]: 0.0669
- Bliss excess [16]: 0.0177
- Bliss excess [17]: -0.0484
- Bliss excess [18]: 0.0096
- Bliss excess [19]: -0.0435
- Bliss excess [20]: -0.0117

Compound: Cc1c2c(nn1C)CSCc1cc(n(C)n1)CSc1cc(c3ccccc3c1)OCCCc1c(C(=O)O)n(C)c3c-2c(Cl)ccc13 [AZD5991] + C[C@@H]1COCCN1C2=NC(=NC(=C2)C3(CC3)[S@](=N)(=O)C)C4=C5C=CNC5=NC=C4 [AZD6738] (first compound max 1 µM, 7x7, partner max 10 µM)
- Bliss excess [1]: 0.0215
- Bliss excess [2]: 0.0145
- Bliss excess [3]: 0.0321
- Bliss excess [4]: 0.0406
- Bliss excess [5]: 0.0118
- Bliss excess [6]: -0.129
- Bliss excess [7]: 0.0332
- Bliss excess [8]: 0.0278
- Bliss excess [9]: -0.0025
- Bliss excess [10]: -0.0352
- Bliss excess [11]: 0.0563
- Bliss excess [12]: -0.0015
- Bliss excess [13]: 0.0152
- Bliss excess [14]: 0.0554
- Bliss excess [15]: 0.0298
- Bliss excess [16]: 0.0477
- Bliss excess [17]: 0.0332
- Bliss excess [18]: 0.0113
- Bliss excess [19]: -0.0091
- Bliss excess [20]: 0.0077

Compound: CN(CCO)CC[C@H](CSc1ccccc1)Nc1ccc(S(=O)(=O)NC(=O)c2ccc(N3CCC([C@@H](O)c4ccccc4-c4ccc(Cl)cc4)CC3)cc2)cc1S(=O)(=O)C(F)(F)F [AZD4320] + CN(C)CCCOc1ccc(-c2ccc3ncc4c(c3c2)n(C2CCOCC2)c(=O)n4C)cn1 [AZD0156] (first compound max 1 µM, 7x7, partner max 1 µM)
- Bliss excess [1]: -0.0036
- Bliss excess [2]: 0.0109
- Bliss excess [3]: -0.0489
- Bliss excess [4]: 0.0034
- Bliss excess [5]: -0.0429
- Bliss excess [6]: -0.0358
- Bliss excess [7]: -0.0144
- Bliss excess [8]: 0.0178
- Bliss excess [9]: 0.0109
- Bliss excess [10]: -0.0567
- Bliss excess [11]: -0.03
- Bliss excess [12]: -0.0125
- Bliss excess [13]: -0.0322
- Bliss excess [14]: -0.0112
- Bliss excess [15]: 0.0418
- Bliss excess [16]: -0.0078
- Bliss excess [17]: -0.0591
- Bliss excess [18]: -0.017
- Bliss excess [19]: -0.0027
- Bliss excess [20]: -0.0326
